For eleven molecules, TGI results are on record in PubChem BioAssay (NCI).

Molecules are shown by their SMILES.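 Method: 48-hour compound exposure of cells in 96-well plates, five concentrations, linear interpolation of endpoints. TGI marks complete inhibition of growth.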

What all share (test): inhibition of tumour cell growth, NCI panel, 48 h
Experiment [1] relates to CAKI-1 renal.
Experiment [2] concerns COLO 205 colon.
Experiment [3] has as its system HOP-62 NSCLC.
Experiment [4] relates to HOP-92 NSCLC.
In experiment [5] the test system is MALME-3M melanoma.
The test system of experiment [6] is NCI/ADR-RES ovarian.
The subject of experiment [7] is OVCAR-4 ovarian.
The subject of experiment [8] is OVCAR-8 ovarian.
For experiment [9], the system named is PC-3 prostate.
The subject of experiment [10] is SF-268 CNS.
For experiment [11], the system named is SK-MEL-28 melanoma.
Experiment [12] concerns SK-MEL-5 melanoma.
In experiment [13] the test system is SNB-19 CNS.
Experiment [14] concerns SNB-75 CNS.
In experiment [15] the test system is SR leukemia.

As to `COc1c(N2CCCCC2)c2c(=O)c3ccccc3oc2c2c3ccccc3n(C)c12`, the TGI in [1], in [2], in [3], in experiment [4], in experiment [5] and in [6] was more than 100 µM each time. For the same molecule, the TGI in [7], in experiment [8], in experiment [9], in experiment [10], in [11] and in experiment [12] was more than 100 µM throughout. In addition, the TGI in [13] and in [14] was more than 100 µM throughout.
In the case of `Cc1cc(N(CCC#N)CCC#N)ccc1/C=C(\N=[N+]=[N-])C(=O)NC(=O)COc1ccccc1`, the TGI in experiment [1], in [2], in experiment [3], in experiment [4], in [5] and in experiment [7] was more than 100 µM throughout. The TGI in [8] is more than 100 µM; in experiment [10] it was more than 100 µM; in [11], more than 100 µM; in experiment [12] it was more than 100 µM; in experiment [13], more than 100 µM; in experiment [14], more than 67.2 µM. The molecule further returned a TGI in experiment [15] of more than 100 µM.
For the molecule `CC(Cn1c(=O)oc2ccccc21)N(C)C` (stereo unspecified), the TGI in experiment [1], in [2], in experiment [3], in [5], in experiment [6] and in experiment [8] was more than 100 µM in each case. Further, the TGI in experiment [9], in experiment [10], in experiment [11], in [12], in experiment [13] and in experiment [14] was more than 100 µM throughout. For the same molecule, the TGI in [15] is more than 100 µM.
Take `O=C1CS(=O)c2ccccc2N1` (stereo unspecified): the TGI in experiment [1], in [2], in experiment [3], in [4], in experiment [5] and in experiment [7] was more than 100 µM each time. Besides, the TGI in [8], in [10], in [11], in experiment [12], in experiment [13] and in experiment [14] was more than 100 µM in each case. The molecule also registered a TGI in experiment [15] of more than 100 µM.
As for `CN(CCO)c1nc(=O)c2c(n1C1OC(CO)C(O)C(O)C1O)CCCC2` (stereo unspecified), the TGI in experiment [1], in experiment [2], in [3], in experiment [4], in [5] and in experiment [8] was more than 100 µM each time. For the same molecule, the TGI in experiment [10], in experiment [11], in experiment [12], in [13], in [14] and in experiment [15] was more than 100 µM each time.
Consider `CCOC(=O)C1=C(C)C2C3C(=O)OC(=O)C3C1(C)C1C(=O)OC(=O)C21` (stereo unspecified), for which the TGI in experiment [2], in experiment [3], in experiment [4], in [5], in experiment [7] and in experiment [8] was more than 100 µM each time. The TGI in experiment [10], in experiment [11], in experiment [12], in experiment [13] and in [14] was more than 100 µM in each case.
In the case of `CC(C)OP(=O)(OC(C)C)/C(=N/Nc1ccc([N+](=O)[O-])cc1)NNC(=O)c1ccccc1`, the TGI in experiment [1] was more than 100 µM; in [2], more than 100 µM; in experiment [3], more than 100 µM; in [4], 61.3 µM; in [5] it was more than 100 µM; in experiment [7], 99.2 µM. Further, the TGI in experiment [8] is more than 100 µM; in experiment [10] it was more than 100 µM; in [11], 91.3 µM; in experiment [12], 32 µM; in experiment [13] it was more than 100 µM; in experiment [14], more than 100 µM. Further, the TGI in experiment [15] was 50.9 µM.
`N#CCCN(c1ccc(C=Nc2ccc(C(=O)O)cc2)cc1)S(=O)(=O)c1ccccc1`: the TGI in experiment [1], in experiment [2], in experiment [3], in experiment [4], in experiment [5] and in experiment [7] was more than 100 µM throughout. The TGI in experiment [8], in [10], in [11], in experiment [12], in [13] and in experiment [14] was more than 100 µM throughout. The same molecule gave a TGI in experiment [15] of more than 100 µM.
`COc1cc2c(c(OC)c1)C(=O)C(=O)C(CC1(C)OCCCO1)=C2`: the TGI came out at 13.1 µM in experiment [1]; 9.58 µM in [2]; 32.6 µM in [3]; 4.41 µM in experiment [4]; 20.4 µM in [5]; 18.9 µM in experiment [7]. The TGI in experiment [8] is 28.6 µM; in experiment [10], 30.1 µM; in [11] it was 28.6 µM; in experiment [12] it was 18.1 µM; in experiment [13] it was more than 53.2 µM; in experiment [14] it was 33.9 µM.
Consider `CCOC(=O)C(C(=O)OCC)S(C)(=O)=O`, for which the TGI in experiment [2], in experiment [3], in experiment [4], in experiment [5], in experiment [7] and in experiment [8] was more than 100 µM in each case. The TGI in [11], in experiment [12], in experiment [13] and in [15] was more than 100 µM throughout.
In the case of `Nc1nc(N)c2c(-c3ccccc3)ccnc2n1`, the TGI in [1], in [2], in experiment [3], in [4], in experiment [5] and in [7] was more than 100 µM throughout. Further, the TGI in [9], in experiment [10], in [11], in experiment [12], in experiment [13] and in experiment [15] was more than 100 µM throughout.
